[ ]: non-standard residue; d: D form. Sar = CNCC(=O)O
Tested on: TFPI
Assay: Extrinsic Tenase Inhibition assay | % Inhibition @ 2.5μM

Substance	Extrinsic Tenase Inhibition assay | % Inhibition @ […]
Ac-FQSK-Nmg-NVFVAGYFERLRAKL-NH2 (SEQ ID NO: 161) (Ac-FQSK[Sar]NVFVAGYFERLRAKL-NH2; SMILES CC(=O)N[C@@H](Cc1ccccc1)C(=O)N[C@@H](CCC(N)=O)C(=O)N[C@@H](CO)C(=O)N[C@@H](CCCCN)C(=O)N(C)CC(=O)N[C@@H](CC(N)=O)C(=O)N[C@H](C(=O)N[C@@H](Cc1ccccc1)C(=O)N[C@H](C(=O)N[C@@H](C)C(=O)NCC(=O)N[C@@H](Cc1ccc(O)cc1)C(=O)N[C@@H](Cc1ccccc1)C(=O)N[C@@H](CCC(=O)O)C(=O)N[C@@H](CCCNC(=N)N)C(=O)N[C@@H](CC(C)C)C(=O)N[C@@H](CCCNC(=N)N)C(=O)N[C@@H](C)C(=O)N[C@@H](CCCCN)C(=O)N[C@@H](CC(C)C)C(N)=O)C(C)C)C(C)C) [JBT1396]	34%
Ac-FQSKGNVFvFGYFERLRAKL-NH2 (SEQ ID NO: 936) (Ac-FQSKGNVF[dV]FGYFERLRAKL-NH2; SMILES CC(=O)N[C@@H](Cc1ccccc1)C(=O)N[C@@H](CCC(N)=O)C(=O)N[C@@H](CO)C(=O)N[C@@H](CCCCN)C(=O)NCC(=O)N[C@@H](CC(N)=O)C(=O)N[C@H](C(=O)N[C@@H](Cc1ccccc1)C(=O)N[C@@H](C(=O)N[C@@H](Cc1ccccc1)C(=O)NCC(=O)N[C@@H](Cc1ccc(O)cc1)C(=O)N[C@@H](Cc1ccccc1)C(=O)N[C@@H](CCC(=O)O)C(=O)N[C@@H](CCCNC(=N)N)C(=O)N[C@@H](CC(C)C)C(=O)N[C@@H](CCCNC(=N)N)C(=O)N[C@@H](C)C(=O)N[C@@H](CCCCN)C(=O)N[C@@H](CC(C)C)C(N)=O)C(C)C)C(C)C) [JBT1149]	0%
Ac-FQSKKNVFFFGYFERLRAKL-NH2 (SEQ ID NO: 735) [JBT1152]	0%
Ac-FQSK-Nmg-NVFVTGYFERLRAKL-NH2 (SEQ ID NO: 125) (Ac-FQSK[Sar]NVFVTGYFERLRAKL-NH2; SMILES CC(=O)N[C@@H](Cc1ccccc1)C(=O)N[C@@H](CCC(N)=O)C(=O)N[C@@H](CO)C(=O)N[C@@H](CCCCN)C(=O)N(C)CC(=O)N[C@@H](CC(N)=O)C(=O)N[C@H](C(=O)N[C@@H](Cc1ccccc1)C(=O)N[C@H](C(=O)N[C@H](C(=O)NCC(=O)N[C@@H](Cc1ccc(O)cc1)C(=O)N[C@@H](Cc1ccccc1)C(=O)N[C@@H](CCC(=O)O)C(=O)N[C@@H](CCCNC(=N)N)C(=O)N[C@@H](CC(C)C)C(=O)N[C@@H](CCCNC(=N)N)C(=O)N[C@@H](C)C(=O)N[C@@H](CCCCN)C(=O)N[C@@H](CC(C)C)C(N)=O)[C@@H](C)O)C(C)C)C(C)C) [JBT1155]	32%
Ac-FQSKpNVFVFGYFERLRAKL-NH2 (SEQ ID NO: 129) (Ac-FQSK[dP]NVFVFGYFERLRAKL-NH2; SMILES CC(=O)N[C@@H](Cc1ccccc1)C(=O)N[C@@H](CCC(N)=O)C(=O)N[C@@H](CO)C(=O)N[C@@H](CCCCN)C(=O)N1CCC[C@@H]1C(=O)N[C@@H](CC(N)=O)C(=O)N[C@H](C(=O)N[C@@H](Cc1ccccc1)C(=O)N[C@H](C(=O)N[C@@H](Cc1ccccc1)C(=O)NCC(=O)N[C@@H](Cc1ccc(O)cc1)C(=O)N[C@@H](Cc1ccccc1)C(=O)N[C@@H](CCC(=O)O)C(=O)N[C@@H](CCCNC(=N)N)C(=O)N[C@@H](CC(C)C)C(=O)N[C@@H](CCCNC(=N)N)C(=O)N[C@@H](C)C(=O)N[C@@H](CCCCN)C(=O)N[C@@H](CC(C)C)C(N)=O)C(C)C)C(C)C) [JBT1162]	51%
Ac-FQSKKNVFVFGYFERLRAKD-NH2 (SEQ ID NO: 937) [JBT1151]	0%
